From patent US6326023A, “Synergistic anti-malarial formulation” (priority 2000, dated 2001)

How the values were obtained:
[1] = test system: P. yoelii nigeriensis (MDR II); test: Blood schizonticidal activity of α/β arteether formulation in neutralized oil by oral route in infected Swiss mice; type: in vivo, P. yoelii nigeriensis (MDR II) in Swiss mice
Protocol: Efficacy of oral administration of arteether formulation for control of blood induced multi-drug resistant P. yoebi nigerensis (MDR II) in Swiss mice (25±g) was evaluated. The mice was infected intraperitoneafly with 1×10^5 parasitized RBC, and drug treatment 10,15,20 and 30 mg/kg was given once daily for five consecutive days (starting from day 0 to day 4). Blood smears made from tail blood and stained with giemsa were examined periodically till 28 days of infection to record parasitaemia levels and number of surviving/cured mice till 28 days.

[2] = test system: P. yoelli nigeriensis (MDR II); test: Blood schizontocidal action of arteether α/β formulation by rectal route in infected Swiss mice; type: in vivo, P. yoelli nigeriensis (MDR II) in Swiss mice
Protocol: α,β-Arteether mixture dissolved in neutralized ground-nut oil was administered to P. yoelli nigeriewis (MDR II) infected mice at 10 mg/kg to 20 mg/kg dose from day 0 to day 2 (for 3 consecutive days) by intra-rectal route. Drug was administered with 0.05-0.25 ml oil (vehicle) in single dose or in 2 divided dose daily. Parasitaemia was recorded daily from tail blood smears stained with Giemsa stain and results are given as % parasitaemia (means±SD). […] Presumptive arteether rectal formulation or suppository administration can save mortality in severe/complicated cases. α/β Arteether rectal route controls the severity of infection and prevents mortality in severe complicated comatose malaria cases and will be specially useful in infants, children and those having frequent vomiting and can not be given oral formulation initially. […] Rectal route α/β arteether formulation remains 1st line of emergency treatment of comatose P. falciparum cases in areas of MDR.

[3] = test system: P. yoelli nigeriensis (MDR II); test: Blood schizonticidal activity of oral arteether formulation prepared in DMSO-distilled water in infected Swiss mice; type: in vivo, P. yoelli nigeriensis (MDR II) in Swiss mice; conditions: for Bioavailability by oral route: suspension in DMSO/distilled water
Protocol: Swiss mice 25±1 gm infected intraperitoneally with 1×10^7 parasitized rbcs were administered α/β formulation, prepared in DMSO (3-4 drop) and then suspended in distilled water by oral administration at various doses ranging between 40-100 mg/kg for 5 consecutive days.
Parasitaemia was recorded periodically from tail blood smears upto 28 days of observation. Both 60 and 80 mg/kg×5 doses were able to eliminate the prasitaemia upto 28 days of observation and were curative. […] A very high dose is required for curative action against MDR of infection and its bioavailability by oral route as suspension in D.W. is low.

P. knowlesi/P. fragile = conditions: intramuscular, rhesus monkey; cited from earlier work
P. yoelii nigeriensis = conditions: intramuscular; chloroquine, mefloquine and quinine resistant strain; cited from earlier work

Structure (SMILES): CCOC1O[C@@H]2O[C@@]3(C)CC[C@H]4[C@H](C)CC[C@@H]([C@H]1C)[C@@]24OO3 (stereo partly drawn) [α/β arteether]
- Parasitaemia (mean ± SD) ([1]; 10 mg/kg × 5 days, Day 6): 0.9 ± 1.0%
- Parasitaemia (mean ± SD) ([1]; 10 mg/kg × 5 days, Day 9): 41 ± 32.8%
- Parasitaemia (mean ± SD) ([1]; 10 mg/kg × 5 days, Day 12): 0.0%
- Number of mice surviving ([1]; 10 mg/kg × 5 days, Day 12, of 8): 2
- Parasitaemia (mean ± SD) ([1]; 10 mg/kg × 5 days, Day 14): 0.0%
- Number of mice surviving ([1]; 10 mg/kg × 5 days, Day 14, of 8): 2
- Parasitaemia (mean ± SD) ([1]; 10 mg/kg × 5 days, Day 28): 0.0%
- Number of mice surviving ([1]; 10 mg/kg × 5 days, Day 28, of 8): 2
- Parasitaemia (mean ± SD) ([1]; 15 mg/kg × 5 days, Day 6): 0.0%
- Parasitaemia (mean ± SD) ([1]; 15 mg/kg × 5 days, Day 9): 5.12 ± 5.7%
- Parasitaemia (mean ± SD) ([1]; 15 mg/kg × 5 days, Day 12): 0.0%
- Number of mice surviving ([1]; 15 mg/kg × 5 days, Day 12, of 8): 4
- Parasitaemia (mean ± SD) ([1]; 15 mg/kg × 5 days, Day 14): 0.0%
- Number of mice surviving ([1]; 15 mg/kg × 5 days, Day 14, of 8): 4
- Parasitaemia (mean ± SD) ([1]; 15 mg/kg × 5 days, Day 28): 0.0%
- Number of mice surviving ([1]; 15 mg/kg × 5 days, Day 28, of 8): 4
- Parasitaemia (mean ± SD) ([1]; 20 mg/kg × 5 days, Day 6): 0.0%
- Parasitaemia (mean ± SD) ([1]; 20 mg/kg × 5 days, Day 9): 3.75 ± 10.6%
- Parasitaemia (mean ± SD) ([1]; 20 mg/kg × 5 days, Day 12): 18.8 ± 32.5%
- Parasitaemia (mean ± SD) ([1]; 20 mg/kg × 5 days, Day 14): 0.0%
- Number of mice surviving ([1]; 20 mg/kg × 5 days, Day 14, of 8): 5
- Parasitaemia (mean ± SD) ([1]; 20 mg/kg × 5 days, Day 28): 0.0%
- Number of mice surviving ([1]; 20 mg/kg × 5 days, Day 28, of 8): 5
- Parasitaemia (mean ± SD) ([1]; 30 mg/kg × 5 days, Day 6): 0.0%
- Parasitaemia (mean ± SD) ([1]; 30 mg/kg × 5 days, Day 9): 0.0%
- Parasitaemia (mean ± SD) ([1]; 30 mg/kg × 5 days, Day 12): 0.0%
- Parasitaemia (mean ± SD) ([1]; 30 mg/kg × 5 days, Day 14): 0.0%
- Number of mice surviving ([1]; 30 mg/kg × 5 days, Day 14, of 8): 8
- Parasitaemia (mean ± SD) ([1]; 30 mg/kg × 5 days, Day 28): 0.0%
- Number of mice surviving ([1]; 30 mg/kg × 5 days, Day 28, of 8): 8
- Drug absorption by rectal route ([2]; neutralized ground-nut oil, rectal): fairly rapid
- Parasitaemia (mean ± SD) ([2]; rectal, 10 mg/kg × 3 days in 2 divided doses at 6 hrs, Day 4): 0.0%
- Parasitaemia (mean ± SD) ([2]; rectal, 10 mg/kg × 3 days in 2 divided doses at 6 hrs, Day 5): 0.0%
- Parasitaemia (mean ± SD) ([2]; rectal, 10 mg/kg × 3 days in 2 divided doses at 6 hrs, Day 11): 10.25 ± 10.0%
- Parasitaemia (mean ± SD) ([2]; rectal, 10 mg/kg × 3 days in 2 divided doses at 6 hrs, Day 28): 0.0%
- Number of animals (in parenthesis) ([2]; rectal, 10 mg/kg × 3 days in 2 divided doses, Day 11, 8 at Day 5): 4
- Number of animals (in parenthesis) ([2]; rectal, 10 mg/kg × 3 days in 2 divided doses, Day 28, 8 at Day 5): 1
- Parasitaemia (mean ± SD) ([2]; rectal, 10 mg/kg × 3 days, Day 4): 0.0002 ± 0.001%
- Number of animals negative (-ve) ([2]; rectal, 10 mg/kg × 3 days, Day 4, of 8): 6
- Parasitaemia (mean ± SD) ([2]; rectal, 10 mg/kg × 3 days, Day 5): 0.002 ± 0.080%
- Number of animals negative (-ve) ([2]; rectal, 10 mg/kg × 3 days, Day 5, of 8): 6
- Parasitaemia (mean ± SD) ([2]; rectal, 10 mg/kg × 3 days, Day 11): 0.0%
- Number of animals (in parenthesis) ([2]; rectal, 10 mg/kg × 3 days, Day 11, 8 at Day 5): 3
- Parasitaemia (mean ± SD) ([2]; rectal, 10 mg/kg × 3 days, Day 28): 0.0%
- Number of animals (in parenthesis) ([2]; rectal, 10 mg/kg × 3 days, Day 28, 8 at Day 5): 3
- Parasitaemia (mean ± SD) ([2]; rectal, 15 mg/kg × 3 days in 2 divided doses at 6 hrs, Day 4): 0.0%
- Parasitaemia (mean ± SD) ([2]; rectal, 15 mg/kg × 3 days in 2 divided doses at 6 hrs, Day 5): 0.0%
- Parasitaemia (mean ± SD) ([2]; rectal, 15 mg/kg × 3 days in 2 divided doses at 6 hrs, Day 11): 0.0%
- Parasitaemia (mean ± SD) ([2]; rectal, 15 mg/kg × 3 days in 2 divided doses at 6 hrs, Day 28): 0.0%
- Number of animals (in parenthesis) ([2]; rectal, 15 mg/kg × 3 days in 2 divided doses, Day 11, 8 at Day 5): 4
- Number of animals (in parenthesis) ([2]; rectal, 15 mg/kg × 3 days in 2 divided doses, Day 28, 8 at Day 5): 4
- Parasitaemia (mean ± SD) ([2]; rectal, 15 mg/kg × 3 days, Day 4): 0.0%
- Parasitaemia (mean ± SD) ([2]; rectal, 15 mg/kg × 3 days, Day 5): 0.0%
- Parasitaemia (mean ± SD) ([2]; rectal, 15 mg/kg × 3 days, Day 11): 0.0%
- Number of animals (in parenthesis) ([2]; rectal, 15 mg/kg × 3 days, Day 11, 8 at Day 5): 4
- Parasitaemia (mean ± SD) ([2]; rectal, 15 mg/kg × 3 days, Day 28): 0.0%
- Number of animals (in parenthesis) ([2]; rectal, 15 mg/kg × 3 days, Day 28, 8 at Day 5): 4
- Parasitaemia (mean ± SD) ([2]; rectal, 20 mg/kg × 3 days in 2 divided doses at 6 hrs, Day 4): 0.0%
- Parasitaemia (mean ± SD) ([2]; rectal, 20 mg/kg × 3 days in 2 divided doses at 6 hrs, Day 5): 0.0%
- Parasitaemia (mean ± SD) ([2]; rectal, 20 mg/kg × 3 days in 2 divided doses at 6 hrs, Day 11): 0.0%
- Parasitaemia (mean ± SD) ([2]; rectal, 20 mg/kg × 3 days in 2 divided doses at 6 hrs, Day 28): 0.0%
- Number of animals (in parenthesis) ([2]; rectal, 20 mg/kg × 3 days in 2 divided doses, Day 11, 8 at Day 5): 6
- Number of animals (in parenthesis) ([2]; rectal, 20 mg/kg × 3 days in 2 divided doses, Day 28, 8 at Day 5): 6
- Parasitaemia (mean ± SD) ([2]; rectal, 20 mg/kg × 3 days, Day 4): 0.0%
- Parasitaemia (mean ± SD) ([2]; rectal, 20 mg/kg × 3 days, Day 5): 0.0%
- Parasitaemia (mean ± SD) ([2]; rectal, 20 mg/kg × 3 days, Day 11): 0.0%
- Number of animals (in parenthesis) ([2]; rectal, 20 mg/kg × 3 days, Day 11, 8 at Day 5): 5
- Parasitaemia (mean ± SD) ([2]; rectal, 20 mg/kg × 3 days, Day 28): 0.0%
- Number of animals (in parenthesis) ([2]; rectal, 20 mg/kg × 3 days, Day 28, 8 at Day 5): 5
- Suppression of parasitaemia after treatment ([2]; rectal, 10.0, 15.0 and 20.0 mg/kg, upto 5 days): suppressed the parasitaemia
- minimal effective dose ([3]; Plasmodium yoelii, po, read-out: Curative dose / dose needed for total clearance): 60 mg/kg
- Parasitaemia ([3]; oral, DMSO-distilled water, 40 mg/kg × 5, Day 4): Nil
- Parasitaemia ([3]; oral, DMSO-distilled water, 40 mg/kg × 5, Day 7): Nil
- Parasitaemia ([3]; oral, DMSO-distilled water, 40 mg/kg × 5, Day 10): 3.86%
- Parasitaemia ([3]; oral, DMSO-distilled water, 40 mg/kg × 5, Day 14): 3.5 ± 8.5%
- Parasitaemia ([3]; oral, DMSO-distilled water, 40 mg/kg × 5, Day 21): Nil
- Parasitaemia ([3]; oral, DMSO-distilled water, 40 mg/kg × 5, Day 28): Nil
- Suppression of parasitaemia ([3]; oral, DMSO-distilled water, 40 mg/kg × 5, MDR strain): transient suppression of parasitaemia, but was not curative
- Parasitaemia ([3]; oral, DMSO-distilled water, 60 mg/kg × 5, Day 4): Nil
- Parasitaemia ([3]; oral, DMSO-distilled water, 60 mg/kg × 5, Day 7): Nil
- Parasitaemia ([3]; oral, DMSO-distilled water, 60 mg/kg × 5, Day 10): Nil
- Parasitaemia ([3]; oral, DMSO-distilled water, 60 mg/kg × 5, Day 14): Nil
- Parasitaemia ([3]; oral, DMSO-distilled water, 60 mg/kg × 5, Day 21): Nil
- Parasitaemia ([3]; oral, DMSO-distilled water, 60 mg/kg × 5, Day 28): Nil
- Parasitaemia ([3]; oral, DMSO-distilled water, 80 mg/kg × 5, Day 4): Nil
- Parasitaemia ([3]; oral, DMSO-distilled water, 80 mg/kg × 5, Day 7): Nil
- Parasitaemia ([3]; oral, DMSO-distilled water, 80 mg/kg × 5, Day 10): Nil
- Parasitaemia ([3]; oral, DMSO-distilled water, 80 mg/kg × 5, Day 14): Nil
- Parasitaemia ([3]; oral, DMSO-distilled water, 80 mg/kg × 5, Day 21): Nil
- Parasitaemia ([3]; oral, DMSO-distilled water, 80 mg/kg × 5, Day 28): Nil
- Parasitaemia ([3]; oral, DMSO-distilled water, 100 mg/kg × 5, Day 4): Nil
- Parasitaemia ([3]; oral, DMSO-distilled water, 100 mg/kg × 5, Day 7): Nil
- Parasitaemia ([3]; oral, DMSO-distilled water, 100 mg/kg × 5, Day 10): Nil
- Parasitaemia ([3]; oral, DMSO-distilled water, 100 mg/kg × 5, Day 14): Nil
- Parasitaemia ([3]; oral, DMSO-distilled water, 100 mg/kg × 5, Day 21): Nil
- Parasitaemia ([3]; oral, DMSO-distilled water, 100 mg/kg × 5, Day 28): Nil
- Curative action (elimination of parasitaemia) ([3]; oral, DMSO-distilled water, 60 and 80 mg/kg × 5, upto 28 days): curative
- Bioavailability by oral route [3]: low
- Bioavailability by oral route ([3]; listed as arteether α/β): of lower order
- Cure of experimental cerebral malaria (P. knowlesi/P. fragile): cures experimental cerebral malaria infections
- Antimalarial activity (P. yoelii nigeriensis): shows antimalarial activity
